Patent publication US11976042B1, “9-(5-bromo-2-hydroxyphenyl)-10-[3-(dimethylamino)propyl]-3,4,6,7,9,10-hexahydroacridine-1,8(2H,5H)-dione as an antimicrobial compound” (KING FAISAL UNIVERSITY, priority 2023, dated 2024)

How the values were obtained:
Assay in all cases: antimicrobial activity by agar dilution
Format in all cases: cell-based
Conditions in all cases: after 10, 20, 40 and 60 minutes at all dilutions 1:100 to 1:800
E. Coli = tested on: E. Coli
Experimental: (§1) The antimicrobial properties of the synthesized compound 9-(5-bromo-2-hydroxyphenyl)-10-[3-(dimethylamino)propyl]-3,4,6,7,9,10-hexahydroacridine-1,8(2H,5H)-dione were studied by the method of agar dilution. Test solutions of each compound were prepared in a concentration of 1% using dimethylformamide as a solvent. Then they were diluted in a physiological solution to obtain the final experimental dilutions 1:100, 1:200, 1:400, and 1:800. The effect of these substances were compared with furacillin in a controllable study. The testing microbes used were gram positive bacteria St. Aereus, gram negative bacteria E. Coli and Ps. Aeruginosa, and Candida albicans fungi. The experiments used for this survey were meat-pentonlu agar (EPA) for cultivation of bacteria and Saburo environment for fungi. Each experiment used 1 ml of test solution on each plate 500 min. Add 2 drops of emulsified with microbes feel. All experimental samples were taken from the agar after 10, 20, 40, 60 minutes in the environment on the basis of Patrk planted. Bacteria were cultivated at a temperature of 37° C. for 1 day and the mushroom was kept in a thermostat for […] at a temperature of 28° C. Then the results were checked.

Candida albicans = tested on: Candida albicans
Experimental: as §1

Ps. Aeruginosa = tested on: Ps. Aeruginosa
Experimental: as §1

St. Aereus = tested on: St. Aereus
Experimental: as §1

Measured: inhibition activity

CN(C)CCCN1C2=C(C(=O)CCC2)C(c2cc(Br)ccc2O)C2=C1CCCC2=O [9-(5-bromo-2-hydroxyphenyl)-10-[3-(dimethylamino)propyl]-3,4,6,7,9,10-hexahydroacridine-1,8(2H,5H)-dione]
highest inhibition activity: all assays above
